# Assay results published in PMC3479105, “K-134, a Phosphodiesterase 3 Inhibitor, Prevents Brain Damage by Inhibiting Thrombus Formation in a Rat Cerebral Infarction Model” (PLoS ONE, 2012).
# Read-outs that look alike come from different tables or passages of the source.
# Legend:
# bleeding time = assay: Tail bleeding time in mice; assay type: in vivo, mouse; details: single oral 30 mg/kg, 10 min before test, control 110±5 s, not significant
# Description: K-134 and warfarin (Sigma Aldrich Co., MO, USA) were suspended and dissolved in 1% HPMC, respectively, and orally administered to ICR mice at 10 min or 24 h before testing of bleeding, respectively. Each mouse was placed in a restrainer, which exposes the tail. A 27G disposable needle (Terumo Co., Tokyo, Japan) was inserted about 6 mm into a tail vein 2 cm from the tip of the tail. Immediately after the operation, sheets of filter paper were placed under the injury site every 15 sec to absorb the blood, and the time point at which no blood was observed on the filter paper was regarded as the bleeding time.
# [1] = tested on: platelet aggregation ex vivo; parameters: method as in PMID 22269153; details: rats, single administration 30 mg/kg; cited from earlier work
# [2] = Plasma concentration of K-134 in mice; assay type: in vivo, mouse; details: male ICR mice, 10 min after administration, n = 6; for concentration at 10 min: mouse, plasma
# Description: We also measured plasma concentration of K-134 at 10 min after a single oral administration of K-134 to male ICR mice (Japan SLC Inc., 5 weeks old).
# [3] = parameters: method as in PMID 22269153; details: cited from earlier work
# [4] = tested on: mouse platelet aggregation; assay: Mouse platelet aggregation in vitro (PRP, aggregometer); assay type: cell-based
# Description: Platelet-rich plasma (PRP) was prepared by centrifugation (900 rpm, 15 min, at room temperature) of blood (05PR-22 centrifuge with a 03 rotor; Hitachi, Ltd., Tokyo, Japan), and the platelet count was adjusted to 5×10^5/µL with platelet-poor plasma prepared by centrifugation (3000 rpm, 10 min, at room temperature). PRP was incubated with antiplatelet agents at 37°C for 3 min and stimulated with collagen (final concentration, 15 µg/mL; MC Medical Inc., Tokyo, Japan) or adenosine diphosphate (ADP) (final concentration, 7.5 µM; MC Medical Inc.) (n = 5). Platelet aggregation was quantified by measuring the area under the curve (AUC) during the 5-min period after addition of trigger using a light transmittance aggregometer (PAM-8C; Mebanix Co., Ltd., Tokyo, Japan).
# [5] = tested on: platelet aggregation ex vivo; assay: Platelet aggregation ex vivo in rats after oral dosing; details: Rattus norvegicus, 300 mg/kg oral, 3 h after administration
# Description: Cilostazol was orally administered to rats under non-fasting conditions in a single dose. […] Platelet-rich plasma (PRP) was prepared by centrifugation (450 × g, 8 min, 25°C) of blood. PRP was stimulated with adenosine diphosphate (ADP) (final concentration = 4 µM; MC Medical Inc., Tokyo, Japan) or collagen (final concentration = 5 µg/mL; MC Medical Inc.). Platelet aggregation was quantified by measuring the area under the curve (AUC) during the 5 or 7 min after addition of ADP or collagen, respectively, using a light transmittance aggregometer (Hema Tracer 313M; MC Medical Inc.).
# [6] = parameters: method as in PMID 10702882; details: human healthy male, single dose 100 mg of cilostazol, cited from earlier work
# [7] = Pharmacokinetics of cilostazol and its active metabolites in rats; assay type: in vivo, rat; details: single oral cilostazol 300 mg/kg, non-fasting male SD rats, n = 3, parent and metabolites
# Description: Pharmacokinetic variables (Cmax, AUC, Tmax and T1/2) were calculated from the plasma drug concentration-time curve. Cilostazol was orally administered to rats under non-fasting conditions at a single dose of 300 mg/kg to determine the concentration-time profile in serum (n = 3). Values are means (± SEM). […]
structure (smiles),measurement,setting,value
O=C(NCCCOc1ccc2[nH]c(=O)ccc2c1)N(C1CC1)[C@@H]1CCCC[C@H]1O [K-134],bleeding time,bleeding time,106 ± 5 s
same,inhibition of ADP-induced platelet aggregation ex vivo,[1],about 55%
same,inhibition of collagen-induced platelet aggregation ex vivo,[1],~79%
same,Plasma concentration of K-134,"[2]; 30 mg/kg single oral, 30 mg/kg",13600 ± 2300 nM
same,concentration at 10 min,[2]; 1 mg/kg single oral,400 nM
same,concentration at 10 min,[2]; 3 mg/kg single oral,1100 ± 200 nM
same,concentration at 10 min,[2]; 10 mg/kg single oral,4300 ± 600 nM
same,concentration at 10 min,[2]; 30 mg/kg single oral,13600 ± 2300 nM
same,time to plasma peak levels,"[3]; oral administration, conscious male SD rats under fed conditions",1 to 2 h
same,half-life (T1/2),"[3]; rats, 10 mg/kg",about 2 h
same,IC50,"[4]; ADP, read-out: IC50, mouse platelet aggregation induced by ADP",6.7 µM
same,IC50,"[4]; collagen, read-out: IC50, mouse platelet aggregation induced by collagen",5.5 µM
O=C1CCc2cc(OCCCCc3nnnn3C3CCCCC3)ccc2N1 [cilostazol],inhibition at 300 mg/kg,[5]; read-out: inhibition of ADP-induced platelet aggregation ex vivo,27%
same,inhibition at 300 mg/kg,[5]; read-out: inhibition of collagen-induced platelet aggregation ex vivo,50%
same,Cmax,"[6]; converted from µg/L, read-out: Cmax",1690 nM
same,AUC0–72 h,[6]; converted from µg/L·h,21.89 µM·h
same,AUC0–72 h,[6],about 8087 µg/L·h
same,Cmax,[6],about 625 µg/L
same,Tmax,"[7]; male, SD, rat, plasma, po, 300 mg/kg, read-out: Tmax",> 3 h
same,Cmax,"[7]; rat, plasma",2400 nM
same,half-life,"[7]; rat, plasma",5.4 h
same,AUC(0-t),"[7]; rat, plasma, read-out: AUC0-24h",30.1 µM·h
same,Tmax,[7],5.8 h
